37 compounds from US20240025856A1, “1,2,3,4-TETRAHYDROQUINOLINE DERIVATIVES AS INHIBITORS OF THE YAP/TAZ-TEAD ACTIVATION FOR TREATING CANCER” (KATHOLIEKE UNIVERSITEIT LEUVEN, priority 2020, published 2024) can be followed below.

Bounds are passed on as bounds.

For the assay, the system named is YAP/TAZ-TEAD transcription. The experiment in a line: Reporter gene assay for measuring the inhibition of YAP/TAZ-TEAD transcription (TEAD-responsive element luciferase reporter in Hek293T cells). Type of assay: cell-based. The following applies: Homo sapiens, HEK-293T, 24 h, Hek293T cells transiently transfected with TEAD-responsive element luciferase reporter; 24 hours incubation. The procedure, abridged: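 Readout is SteadyLite luciferase luminescence from a TEAD-responsive element reporter transiently transfected into Hek293T cells, exposed to compounds for 24 h at 37 °C/5% CO2. IC50 derived from percent inhibition, scaled between vehicle basal activity (0%) and positive control inhibitor (100%).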
`CNS(=O)(=O)CCNCC1Cc2ccccc2N(c2ccc(C(F)(F)F)cc2)C1` (stereo not shown) [compound 124, N-methyl-2-(((1-(4-(trifluoromethyl)phenyl)-1,2,3,4-tetrahydroquinolin-3-yl)methyl)amino)ethane-1-sulfonamide] returned an IC50 of 1000 to 20000 nM.
`N#CCC(=O)NCC1Cc2ccccc2N(c2ccc(C(F)(F)F)cc2)C1` (stereo not shown) [compound 125, 2-cyano-N-((1-(4-(trifluoromethyl)phenyl)-1,2,3,4-tetrahydroquinolin-3-yl)methyl)acetamide]: the IC50 was below 1000 nM.
Take `N#CCCNCC1Cc2ccccc2N(c2ccc(C(F)(F)F)cc2)C1` (stereo not shown) [compound 126, 3-(((1-(4-(trifluoromethyl)phenyl)-1,2,3,4-tetrahydroquinolin-3-yl)methyl)amino)propanenitrile]: the IC50 was in the range of 1000 to 20000 nM.
In turn, `N#CCNCC1Cc2ccccc2N(c2ccc(C(F)(F)F)cc2)C1` (stereo not shown) [compound 127, 2-(((1-(4-(trifluoromethyl)phenyl)-1,2,3,4-tetrahydroquinolin-3-yl)methyl)amino)acetonitrile] registered an IC50 below 1000 nM.
Consider `C=CC(=O)NCC1Cc2c(Cc3ccccc3)cccc2N(c2ccc(C(F)(F)F)cc2)C1` (stereo not shown) [compound 129, N-((5-benzyl-1-(4-(trifluoromethyl)phenyl)-1,2,3,4-tetrahydroquinolin-3-yl)methyl)acrylamide], for which the IC50 is below 1000 nM.
`CCC(=O)NCC1Cc2c(Cc3ccccc3)cccc2N(c2ccc(C(F)(F)F)cc2)C1` (stereo not shown) [compound 130, N-((5-benzyl-1-(4-(trifluoromethyl)phenyl)-1,2,3,4-tetrahydroquinolin-3-yl)methyl)propionamide] returned an IC50 below 1000 nM.
`C=CC(=O)NCC1Cc2cc(OC)ccc2N(c2ccc(C(F)(F)F)cc2)C1` (stereo not shown) [compound 131, N-((6-methoxy-1-(4-(trifluoromethyl)phenyl)-1,2,3,4-tetrahydroquinolin-3-yl)methyl)acrylamide] showed an IC50 below 1000 nM.
In turn, `C=CC(=O)N(C)C1Cc2ccccc2N(c2ccc(C(F)(F)F)cc2)C1` (stereo not shown) [compound 132, N-methyl-N-(1-(4-(trifluoromethyl)phenyl)-1,2,3,4-tetrahydroquinolin-3-yl)acrylamide] registered an IC50 below 1000 nM.
Compound `C=CC(=O)N(CCOC)C1Cc2ccccc2N(c2ccc(C(F)(F)F)cc2)C1` (stereo not shown) [compound 133, N-(2-methoxyethyl)-N-(1-(4-(trifluoromethyl)phenyl)-1,2,3,4-tetrahydroquinolin-3-yl)acrylamide] showed an IC50 of 1000 to 20000 nM.
The compound `C=CC(=O)N(CCOC)CC1Cc2ccccc2N(c2ccc(C(F)(F)F)cc2)C1` (stereo not shown) [compound 135, N-(2-methoxyethyl)-N-((1-(4-(trifluoromethyl)phenyl)-1,2,3,4-tetrahydroquinolin-3-yl)methyl)acrylamide] came in with an IC50 below 1000 nM.
`C=CC(=O)NC1Cc2c(C(N)=O)cccc2N(c2ccc(C(F)(F)F)cc2)C1` (stereo not shown) [compound 136, 3-acrylamido-1-(4-(trifluoromethyl)phenyl)-1,2,3,4-tetrahydroquinoline-5-carboxamide] had an IC50 below 1000 nM.
On to `C=CC(=O)NC1Cc2c(-c3nnn[nH]3)cccc2N(c2ccc(C(F)(F)F)cc2)C1` (stereo not shown) [compound 137, N-(5-(1H-tetrazol-5-yl)-1-(4-(trifluoromethyl)phenyl)-1,2,3,4-tetrahydroquinolin-3-yl)acrylamide], for which the IC50 was above 20000 nM.
Regarding `C=CC(=O)NC1Cc2c(CN)cccc2N(c2ccc(C(F)(F)F)cc2)C1` (stereo not shown) [compound 138, N-(5-(aminomethyl)-1-(4-(trifluoromethyl)phenyl)-1,2,3,4-tetrahydroquinolin-3-yl)acrylamide], the IC50 was below 1000 nM.
The result for `C=CC(=O)NCC1Cc2ccccc2N([C@H]2CC[C@@H](C(F)(F)F)CC2)C1` (stereo partly drawn) [compound 144, cis-N-((1-(4-(trifluoromethyl)cyclohexyl)-1,2,3,4-tetrahydroquinolin-3-yl)methyl)acrylamide] reads below 1000 nM; that for `C=CC(=O)NCC1Cc2ccccc2N(C2CCC(F)(F)CC2)C1` (stereo not shown) [compound 145, N-((1-(4,4-difluorocyclohexyl)-1,2,3,4-tetrahydroquinolin-3-yl)methyl)acrylamide], below 1000 nM; that for `C=CC(=O)NC1Cc2c(ccnc2N)N(c2ccc(C(F)(F)F)cc2)C1` (stereo not shown) [compound 146, N-(5-amino-1-(4-(trifluoromethyl)phenyl)-1,2,3,4-tetrahydro-1,6-naphthyridin-3-yl)acrylamide], below 1000 nM.
The compound `CCC(=O)NCC1Cc2ccccc2N(c2ccc(C#N)cc2)C1` (stereo not shown) [compound 148, N-((1-(4-cyanophenyl)-1,2,3,4-tetrahydroquinolin-3-yl)methyl)propionamide] returned an IC50 of 1000 to 20000 nM.
For `C=CC(=O)NCC1Cc2ccccc2N(c2ccc(C#N)nc2)C1` (stereo not shown) [compound 151, N-((1-(6-cyanopyridin-3-yl)-1,2,3,4-tetrahydroquinolin-3-yl)methyl)acrylamide], the IC50 is below 1000 nM.
Compound `CCC(=O)NCC1Cc2ccccc2N(c2ccc(C(F)F)nc2)C1` (stereo not shown) [compound 152, N-((1-(6-(difluoromethyl)pyridin-3-yl)-1,2,3,4-tetrahydroquinolin-3-yl)methyl)propionamide] registered an IC50 of 1000 to 20000 nM.
As for `CC(=O)NCC1Cc2c(C(=O)O)cccc2N(c2ccc(C(F)(F)F)cc2)C1` (stereo not shown) [compound 155, 3-(acetamidomethyl)-1-(4-(trifluoromethyl)phenyl)-1,2,3,4-tetrahydroquinoline-5-carboxylic acid], the figure is above 20000 nM; as for `C=CC(=O)NCC1Cc2c(C(=O)NS(C)(=O)=O)cccc2N(c2ccc(C(F)(F)F)cc2)C1` (stereo not shown) [compound 157, 3-(acrylamidomethyl)-N-(methylsulfonyl)-1-(4-(trifluoromethyl)phenyl)-1,2,3,4-tetrahydroquinoline-5-carboxamide], above 20000 nM.
As for `C=CC(=O)NCC1Cc2ccccc2N(c2ccc(C=O)cc2)C1` (stereo not shown) [compound 159, N-((1-(4-formylphenyl)-1,2,3,4-tetrahydroquinolin-3-yl)methyl)acrylamide], the figure is below 1000 nM.
In turn, `C=CC(=O)NC1Cc2c(C(=O)NS(C)(=O)=O)cccc2N(c2ccc(C(F)(F)F)cc2)C1` (stereo not shown) [compound 160, 3-acrylamido-N-(methylsulfonyl)-1-(4-(trifluoromethyl)phenyl)-1,2,3,4-tetrahydroquinoline-5-carboxamide] showed an IC50 above 20000 nM.
`C=CC(=O)NC1Cc2c(CC(=O)O)cccc2N(c2ccc(C(F)(F)F)cc2)C1` (stereo not shown) [compound 162, 2-(3-acrylamido-1-(4-(trifluoromethyl)phenyl)-1,2,3,4-tetrahydroquinolin-5-yl)acetic acid] showed an IC50 above 20000 nM.
Take `C=CC(=O)NC1Cc2c(CC(=O)NS(C)(=O)=O)cccc2N(c2ccc(C(F)(F)F)cc2)C1` (stereo not shown) [compound 165, N-(5-(2-(methylsulfonamido)-2-oxoethyl)-1-(4-(trifluoromethyl)phenyl)-1,2,3,4-tetrahydroquinolin-3-yl)acrylamide]: the IC50 was above 20000 nM.
The result for `C=CC(=O)NC1Cc2c(-c3noc(=O)[nH]3)cccc2N(c2ccc(C(F)(F)F)cc2)C1` (stereo not shown) [compound 166, N-(5-(5-oxo-4,5-dihydro-1,2,4-oxadiazol-3-yl)-1-(4-(trifluoromethyl)phenyl)-1,2,3,4-tetrahydroquinolin-3-yl)acrylamide] reads above 20000 nM.
`C=CC(=O)NCC1Cc2c(-c3noc(=O)[nH]3)cccc2N(c2ccc(C(F)(F)F)cc2)C1` (stereo not shown) [compound 167, N-((5-(5-oxo-4,5-dihydro-1,2,4-oxadiazol-3-yl)-1-(4-(trifluoromethyl)phenyl)-1,2,3,4-tetrahydroquinolin-3-yl)methyl)acrylamide]: the IC50 was above 20000 nM.
As for `C=CC(=O)NC1Cc2ccccc2N(C(=O)c2ccccc2)C1` (stereo not shown) [compound 172, N-(1-benzoyl-1,2,3,4-tetrahydroquinolin-3-yl)acrylamide], the figure is above 20000 nM; as for `C=CC(=O)NCC1Cc2ccccc2N(Cc2ccccc2)C1` (stereo not shown) [compound 176, N-((1-benzyl-1,2,3,4-tetrahydroquinolin-3-yl)methyl)acrylamide], below 1000 nM.
In turn, `C=CC(=O)NCC1Cc2ccccc2N(C(=O)c2ccccc2)C1` (stereo not shown) [compound 177, N-((1-benzoyl-1,2,3,4-tetrahydroquinolin-3-yl)methyl)acrylamide] came in with an IC50 below 1000 nM.
In the case of `C=CC(=O)NCC1Cc2ccccc2N(CC2CCCCC2)C1` (stereo not shown) [compound 179, N-((1-(cyclohexylmethyl)-1,2,3,4-tetrahydroquinolin-3-yl)methyl)acrylamide], the IC50 is below 1000 nM.
As for `C=CC(=O)NCC1Cc2ccccc2N(C(=O)C2CCCCC2)C1` (stereo not shown) [compound 180, N-((1-(cyclohexanecarbonyl)-1,2,3,4-tetrahydroquinolin-3-yl)methyl)acrylamide], the IC50 is below 1000 nM.
With `C=CC(=O)NC1Cc2ccccc2N(Cc2cccc(C(F)(F)F)c2)C1` (stereo not shown) [compound 182, N-(1-(3-(trifluoromethyl)benzyl)-1,2,3,4-tetrahydroquinolin-3-yl)acrylamide], the IC50 is below 1000 nM.
For `O=S(=O)(O)CCNCC1Cc2ccccc2N(c2ccc(C(F)(F)F)cc2)C1` (stereo not shown) [compound 183, 2-(((1-(4-(trifluoromethyl)phenyl)-1,2,3,4-tetrahydroquinolin-3-yl)methyl)amino)ethane-1-sulfonic acid], the IC50 was above 20000 nM.
The compound `C=CC(=O)NCC1Cc2ccccc2N(Cc2cccc(C(F)(F)F)c2)C1` (stereo not shown) [compound 185, N-((1-(3-(trifluoromethyl)benzyl)-1,2,3,4-tetrahydroquinolin-3-yl)methyl)acrylamide] returned an IC50 below 1000 nM.
Take `C=CC(=O)NC1Cc2ccccc2N(S(=O)(=O)c2cccc(C(F)(F)F)c2)C1` (stereo not shown) [compound 186, N-(1-((3-(trifluoromethyl)phenyl)sulfonyl)-1,2,3,4-tetrahydroquinolin-3-yl)acrylamide]: the IC50 was below 1000 nM.
In turn, `C=CC(=O)NC1Cc2ccccc2N(S(=O)(=O)c2ccc(C(F)(F)F)cc2)C1` (stereo not shown) [compound 187, N-(1-((4-(trifluoromethyl)phenyl)sulfonyl)-1,2,3,4-tetrahydroquinolin-3-yl)acrylamide] yielded an IC50 below 1000 nM.
